These are literature values, as cited in patent publication US20180228837A1, “STABLE IODINE SOLUTIONS WITH MEDICAL APPLICATIONS” (priority 2017, published 2018).

Like-named read-outs stand apart in the source and are kept apart here.

One data set has as its system dermal wounds. The settings on record: dermal wounds of rabbits.
Data set [1] concerns wound chambers and full thickness wounds. The settings on record: rats; injected in one area of the body, healing at distant areas.
The test system is the same in data set [2]. As to conditions: mice; injected in one area of the body, healing at distant areas.
Data set [3] shares this test system. As to conditions: pigs; injected in one area of the body, healing at distant areas.
A further data set relates to wounds. As to conditions: diabetic rats; collagen membrane material.
The subject of the next data set is ischemic open wounds. The settings on record: ischemic open wounds in rats; compared with vehicle alone or untreated wounds.

Consider “copper complex of a glycyl-L-histidyl-L-lysine peptide [GHK-Cu]”, for which the results for the wound healing entry in the data set on dermal wounds and in the data set with ischemic open wounds were “facilitated wound healing” and “healed faster”, respectively. Further, the “systemic enhancement of healing” value in data set [1], in data set [2] and in data set [3] was “induce a systemic enhancement of healing” throughout. For the same substance, in the data set with wounds, the “wound contraction and epithelization” value is “faster wound contraction and epithelization”. In addition, the “concentration of metalloproteinases 2 and 9 and of TNF-beta” value in the data set with ischemic open wounds is “decreased”.
